The test system of test [1] is Nrf2 (Keap1-NRF2 nuclear translocation). As to the kind of experiment: U2OS translocation assay (PathHunter U2OS Keap1-NRF2 Nuclear Translocation Cell Line). It is filed as cell-based. The method in brief:
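Enzyme-fragment complementation read-out: luminescence after 60 min of detection reagent at room temperature, following a 3 h, 37° C compound exposure of engineered U2OS Keap1-NRF2 translocation cells (1% FBS medium). Signal scaled from 1% DMSO basal to 10 μM andrographolide maximum.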

In another test the target is T1, Keap1 (A321-C624) (h) (Homo sapiens, UniProt Q14145).
T1 construct: His-Thromb-KEAP1(A321-C624) acquired from Novalix (batch PU-P01) was immobilized covalently by amine coupling; His tag (N); thrombin cleavage site (Thromb) (N); purchased Novalix batch PU-P01
Nature of the test: Surface Plasmon Resonance binding assay to Kelch domain of KEAP1. To be noted: Biacore T200, 25° C., immobilized His-Thromb-KEAP1(A321-C624), single cycle kinetics, KD=kd/ka from 1:1 fit; read-out: Keap1 (A321-C624) (h) direct/SPR (KD). The protocol: EXAMPLE 85: SURFACE PLASMON RESONANCE
Binding assay to Kelch domain of KEAP1 was performed by Surface Plasmon Resonance (SPR) on a Biacore T200 (GE Healthcare) at 25° C. using CM5 chip. His-Thromb-KEAP1(A321-C624) acquired from Novalix (batch PU-P01) was immobilized covalently by amine coupling using standard wizard protocol, at a concentration of 20 μg/mL in sodium acetate pH 5.5. The ligand was captured until 1250 RU was reached. Amine blank is used as the reference flow cell. Binding of analyte to the ligand was monitored in real time with associations of 180 seconds and a dissociation of 720 seconds. Association (ka) and dissociation (kd) rates were fitted with a simple 1:1 kinetic interaction model using Biacore T200 Evaluation Software (GE Healthcare). The equilibrium constant (KD=kd/ka) was calculated from these fitted parameters. […] The Biacore binding assay was performed with a flowrate of 50 μL/min using a running buffer of 10 mM HEPES (pH 7.4), 150 mM NaCl, 3 mM EDTA, 1 mM TCEP, 0.05% P20,5% DMSO. Double subtraction was used by subtracting both reference flow cell and previous blank cycle (with running buffer). Solvent correction was applied to correct DMSO bulk effect.
For orientation: SPR reads the build-up and loss of mass on a sensor chip optically.

[2] abbreviates: Homo sapiens, U2OS, 3 h, read-out: CELLULAR U2OS EC50 (nM), U2OS Keap1-NRF2 nuclear translocation cells, 3 h incubation, luminescence, normalized between 1% DMSO and 10 μM andrographolide.
Where [3] appears, read: read-out: CELLULAR U2OS EC50, U2OS Keap1-NRF2 nuclear translocation cells, 3 h incubation, luminescence, normalized between 1% DMSO and 10 μM andrographolide.

Like-named read-outs stand apart in the source and are kept apart here.

T1 sequence (Q14145 321-624): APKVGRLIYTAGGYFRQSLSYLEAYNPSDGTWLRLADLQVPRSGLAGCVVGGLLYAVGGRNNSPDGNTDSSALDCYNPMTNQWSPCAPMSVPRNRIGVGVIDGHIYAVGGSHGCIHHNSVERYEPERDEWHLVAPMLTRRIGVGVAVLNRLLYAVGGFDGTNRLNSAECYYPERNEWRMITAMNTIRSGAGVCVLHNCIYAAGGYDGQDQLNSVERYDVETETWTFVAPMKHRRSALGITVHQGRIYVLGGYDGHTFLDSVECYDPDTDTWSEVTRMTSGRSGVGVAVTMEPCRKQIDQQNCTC

As a reminder, the EC50 is the concentration that produces a half-maximal response. `Cc1ccc2cc1CN1Cc3cc(ccc3OS1(=O)=O)OCCCn1nnc3c(C)c(ccc31)C2CC(=O)O` (racemic) [Example 2, [4,30-Dimethyl-26,26-dioxo-20,25-dioxa-26λ^6-thia-1,14,15,16-tetraazahexacyclo[19.5.3.1^3,70.1^9,130.0^12,160.0^24,28]hentriaconta-3(31),4,6,9(30),10,12,14,21,23,28-decaen-8-yl]acetic acid]: in test [1] (setting [2]), the 50% effective concentration (EC50) was found to be 830 nM. Further, on Keap1 (A321-C624) (h), the Kd is 35.2 nM. `Cc1ccc2cc1CN1Cc3cc(ccc3OS1(=O)=O)OCCCCCn1nnc3c(C)c(ccc31)C2CC(=O)O` (single isomer, unassigned) [Example 1a, [4,32-dimethyl-28,28-dioxo-22,27-dioxa-28λ^6-thia-1,14,15,16-tetraazahexacyclo[21.5.3.1^3,70.1^9,130.0^12,160.0^26,30]tritriaconta-3(33),4,6,9(32),10,12,14,23,25,30-decaen-8-yl]acetic acid]: the half-maximal effective concentration (EC50) in test [1] (setting [3]) is 10.1 nM. The Kd at Keap1 (A321-C624) (h) is 0.181 nM.

For the compound `Cc1ccc2cc1CN1Cc3cc(ccc3OS1(=O)=O)OCCCCCn1nnc3c(C)c(ccc31)C2CC(=O)O` (single isomer, unassigned) [Example 1b, [4,32-dimethyl-28,28-dioxo-22,27-dioxa-28λ^6-thia-1,14,15,16-tetraazahexacyclo[21.5.3.1^3,70.1^9,130.0^12,160.0^26,30]tritriaconta-3(33),4,6,9(32),10,12,14,23,25,30-decaen-8-yl]acetic acid], the EC50 in test [1] (setting [3]) was 735 nM. Further, the Kd at Keap1 (A321-C624) (h) stood at 3.97 nM. On to `COc1cc2cc(c1)C(CC(=O)O)c1ccc3c(nnn3CCCCOc3ccc4c(c3)CN(C2)S(=O)(=O)O4)c1C` (single isomer, unassigned) [Example 8a, [5-Methoxy-31-methyl-27,27-dioxo-21,26-dioxa-27λ^6-thia-1,14,15,16-tetraazahexacyclo[20.5.3.1^3,70.1^9,130.0^12,160.0^25,29]dotriaconta-3(32),4,6,9(31),10,12,14,22,24,29-decaen-8-yl]acetic acid], for which the EC50 in test [1] (setting [2]) was 986 nM. For the same compound, at Keap1 (A321-C624) (h), the Kd was determined as 62.2 nM. Take `COc1cc2cc(c1)C(CC(=O)O)c1ccc3c(nnn3CCCCOc3ccc4c(c3)CN(C2)S(=O)(=O)O4)c1C` (single isomer, unassigned) [Example 8b, [5-Methoxy-31-methyl-27,27-dioxo-21,26-dioxa-27λ^6-thia-1,14,15,16-tetraazahexacyclo[20.5.3.1^3,70.1^9,130.0^12,160.0^25,29]dotriaconta-3(32),4,6,9(31),10,12,14,22,24,29-decaen-8-yl]acetic acid]: the EC50 in test [1] (setting [3]) was 516 nM. Moreover, the Kd at Keap1 (A321-C624) (h) is 12.4 nM.

For the compound `Cc1c2ccc3c1nnn3CCCCOc1ccc3c(c1)CN(Cc1cc(ccc1Cl)C2CC(=O)O)S(=O)(=O)O3` (single isomer, unassigned) [Example 9a, [4-Chloro-31-methyl-27,27-dioxo-21,26-dioxa-27λ^6-thia-1,14,15,16-tetraazahexacyclo[20.5.3.1^3,70.1^9,130.0^12,160.0^25,29]dotriaconta-3(32),4,6,9(31),10,12,14,22,24,29-decaen-8-yl]acetic acid], the EC50 in test [1] (setting [3]) is 48.2 nM. The Kd on Keap1 (A321-C624) (h) came out at 2.12 nM. Take `Cc1c2ccc3c1nnn3CCCCOc1ccc3c(c1)CN(Cc1cc(ccc1Cl)C2CC(=O)O)S(=O)(=O)O3` (single isomer, unassigned) [Example 9b, [4-Chloro-31-methyl-27,27-dioxo-21,26-dioxa-27λ^6-thia-1,14,15,16-tetraazahexacyclo[20.5.3.1^3,70.1^9,130.0^12,160.0^25,29]dotriaconta-3(32),4,6,9(31),10,12,14,22,24,29-decaen-8-yl]acetic acid]: the EC50 in test [1] (setting [3]) came to 845 nM. Besides, the Kd at Keap1 (A321-C624) (h) was found to be 9.99 nM.

On to `COc1ccc2cc1CN1Cc3cc(ccc3OS1(=O)=O)OCCCCn1nnc3c(C)c(ccc31)C2CC(=O)O` (single isomer, unassigned) [Example 10a, [4-Methoxy-31-methyl-27,27-dioxo-21,26-dioxa-27λ^6-thia-1,14,15,16-tetraazahexacyclo[20.5.3.1^3,70.1^9,130.0^12,160.0^25,29]dotriaconta-3(32),4,6,9(31),10,12,14,22,24,29-decaen-8-yl]acetic acid], for which the EC50 in test [1] (setting [3]) was determined as 58.1 nM. Besides, the Kd on Keap1 (A321-C624) (h) amounted to 3.54 nM. Turning to `COc1ccc2cc1CN1Cc3cc(ccc3OS1(=O)=O)OCCCCn1nnc3c(C)c(ccc31)C2CC(=O)O` (single isomer, unassigned) [Example 10b, [4-Methoxy-31-methyl-27,27-dioxo-21,26-dioxa-27λ^6-thia-1,14,15,16-tetraazahexacyclo[20.5.3.1^3,70.1^9,130.0^12,160.0^25,29]dotriaconta-3(32),4,6,9(31),10,12,14,22,24,29-decaen-8-yl]acetic acid], in test [1] (setting [3]), the EC50 was determined as 369 nM. Besides, the Kd on Keap1 (A321-C624) (h) worked out at 15.1 nM. The matching figures for `Cc1ccc2cc1CN1Cc3cc(ccc3OS1(=O)=O)OCCCCCCn1nnc3c(C)c(ccc31)C2CC(=O)O` (single isomer, unassigned) [Example 11a, [4,33-Dimethyl-29,29-dioxo-23,28-dioxa-29λ^6-thia-1,14,15,16-tetraazahexacyclo[22.5.3.1^3,70.1^9,130.0^12,160.0^27,31]tetratriaconta-3(34),4,6,9(33),10,12,14,24,26,31-decaen-8-yl]acetic acid]: 109 nM and 2.42 nM. In the case of `Cc1ccc2cc1CN1Cc3cc(ccc3OS1(=O)=O)OCCn1nnc3c(C)c(ccc31)C2CC(=O)O` (centres unmarked) [Example 77a, [4,29-Dimethyl-25,25-dioxo-19,24-dioxa-25λ^6-thia-1,14,15,16-tetraazahexacyclo[18.5.3.1^3,70.1^9,130.0^12,160.0^23,27]triaconta-3(30),4,6,9(29),10,12,14,20,22,27-decaen-8-yl]acetic acid], the half-maximal effective concentration (EC50) in test [1] (setting [2]) amounted to 1750 nM. On to `Cc1ccc2cc1CN1Cc3cc(ccc3OS1(=O)=O)OCCn1nnc3c(C)c(ccc31)C2CC(=O)O` (centres unmarked) [Example 77b, [4,29-Dimethyl-25,25-dioxo-19,24-dioxa-25λ^6-thia-1,14,15,16-tetraazahexacyclo[18.5.3.1^3,70.1^9,130.0^12,160.0^23,27]triaconta-3(30),4,6,9(29),10,12,14,20,22,27-decaen-8-yl]acetic acid], for which the EC50 in test [1] (setting [3]) was > 3160 nM. For `Cc1ccc2cc1CN1Cc3cc(ccc3OS1(=O)=O)OCCCCn1nnc3c(C)c(ccc31)[C@@H]2CC(=O)Nc1cncnc1` [Example 79a, 2-[(8R)-4,31-Dimethyl-27,27-dioxo-21,26-dioxa-27λ^6-thia-1,14,15,16-tetraazahexacyclo[20.5.3.1^3,70.1^9,130.0^12,160.0^25,29]dotriaconta-3(32),4,6,9(31),10,12,14,22,24,29-decaen-8-yl]-N-(pyrimidin-5-yl)acetamide], the EC50 in test [1] (setting [2]) came to 1120 nM. Same read-out and setting: the result for `Cc1ccc2cc1CN1Cc3cc(ccc3OS1(=O)=O)OCCCCn1nnc3c(C)c(ccc31)[C@H]2CC(=O)Nc1cncnc1` [Example 79b, 2-[(8S)-4,31-dimethyl-27,27-dioxo-21,26-dioxa-27λ^6-thia-1,14,15,16-tetraazahexacyclo[20.5.3.1^3,70.1^9,130.0^12,160.0^25,29]dotriaconta-3(32),4,6,9(31),10,12,14,22,24,29-decaen-8-yl]-N-(pyrimidin-5-yl)acetamide] reads 296 nM; that for `Cc1ccc2cc1CN1Cc3cc(ccc3OS1(=O)=O)OCCCCn1nnc3c(C)c(ccc31)[C@H]2CC(=O)Nc1cccnc1` [Example 80a, 2-[(8S)-4,31-Dimethyl-27,27-dioxo-21,26-dioxa-27λ^6-thia-1,14,15,16-tetraazahexacyclo[20.5.3.1^3,70.1^9,130.0^12,160.0^25,29]dotriaconta-3(32),4,6,9(31),10,12,14,22,24,29-decaen-8-yl]-N-(pyridin-3-yl)acetamide], 596 nM; that for `Cc1ccc2cc1CN1Cc3cc(ccc3OS1(=O)=O)OCCCCn1nnc3c(C)c(ccc31)[C@@H]2CC(=O)Nc1cccnc1` [Example 80b, 2-[(8R)-4,31-dimethyl-27,27-dioxo-21,26-dioxa-27λ^6-thia-1,14,15,16-tetraazahexacyclo[20.5.3.1^3,70.1^9,130.0^12,160.0^25,29]dotriaconta-3(32),4,6,9(31),10,12,14,22,24,29-decaen-8-yl]-N-(pyridin-3-yl)acetamide], 2700 nM.

The values above are taken from patent publication US12643912B2, “Macrocyclic compounds, a process for their preparation and pharmaceutical compositions containing them” (LES LABORATOIRES SERVIER, priority 2020, dated 2026).
